{"source": "patent US20070270350A1", "about": "“Methods and Compositions for the Prevention and Treatment of Inflammatory Diseases or Conditions” (MUSC FOUNDATION FOR RESEARCH DEVELOPMENT, priority 2003, published 2007)", "key": {"[1]": {"details": "cited from earlier work"}, "[2]": {"test_system": "iNOS", "test": "LPS/IFN-induced NO production and iNOS expression in C6 glioma cells", "assay_type": "cell-based, rat", "details": "D-PDMP 10, 25, 50 μM, 0.5 hr pretreatment", "experimental": "C6 rat glioma cells obtained from ATCC were maintained in Dulbecco's modified Eagle's medium (DMEM) (GIBCO, CA) containing 10% fetal bovine serum (FBS) (GIBCO) and 10 ? g/ml gentamicin. All the cultured cells were maintained at 37° C. in 5% CO2/95% air. At 80% confluency, the cells were incubated with serum free DMEM medium for 24 h prior to the incubation with LPS/IFN ? and other chemicals. Assay for NO production. Cells were cultured in 12-well plastic tissue culture plates. After the appropriate treatment, production of NO was determined by an assay of the culture supernatant for nitrite (Green et al., 1982). Briefly, 100 μl of culture supernatant was allowed to react with 100 μl of Griess reagent. The optical density of the assay samples was measured spectrophotometrically at 570 nm. Nitrite concentrations were calculated from a standard curve derived from the reaction of NaNO2 in fresh media. Western Blot Analysis. […] The protein concentration of samples was determined with the detergent compatible protein assay reagent (Bio-Rad Laboratories, CA) using bovine serum albumin (BSA) as the standard. Sample was boiled for 3 min with 0.1 volumes of 10% O-mercaptoethanol and 0.5% bromophenol blue mix. Fifty μg of total cellular protein was resolved by electrophoresis in 8 or 12% polyacrylamide gels, electro-transferred to polyvinylidene difluoride (PVDF) filter and blocked with Tween 20 containing Tris-buffered saline [TBST; 10 mM Trizma base (pH 7.4), 1% Tween 20, and 150 mM NaCl] with 5% skim milk. After incubation with antiserum against iNOS (BD PharMingen, CA), or hRas (Upstate Biotechnology, CA), or phospho-specific MAPK (p42/44) (Signal Transduction), in PVDF buffer for 2 h at room temperature, the filters were washed 3 times with TBST buffer and then incubated with horseradish peroxidase conjugated anti-rabbit or mouse IgG for 1 h. The membranes were autoradiographed by using ECL-plus (Amersham Pharmacia Biotech) after washing with TBST buffer. RT-PCR amplification. […] PCR amplification was conducted in 25 ? l of reaction mixture with 1.0 ? l of cDNA, […] and under the manufacturer's Taq polymerase conditions (Takara, […] Shuzo Co. Ltd, Japan). The sequence of primers used for PCR amplification are as follows; iNOS, (Forward-[NT], Reverse-[NT]), GalT-2 (Forward-[NT], Reverse-[NT]), GAPDH (Forward-[NT], Reverse-[NT])."}, "[3]": {"test_system": "NF-κB", "test": "NF-κB reporter, gel shift and IκB phosphorylation after LPS/IFN", "assay_type": "cell-based, rat", "experimental": "Western Blot Analysis. For iNOS protein, the cells were washed with cold Tris buffered saline (TBS; 20 mM Trizma base, and 137 mM NaCl, pH 7.5), lysed in 1×SDS sample loading buffer (62.5 mM Trizma base, 2% w/v SDS, 10% glycerol), following sonication and centrifugation at 1,5000×g for 5 min, the supernatant was used for the iNOS western immunoblot assay. The protein concentration of samples was determined with the detergent compatible protein assay reagent (Bio-Rad Laboratories, CA) using bovine serum albumin (BSA) as the standard. Sample was boiled for 3 min with 0.1 volumes of 10% O-mercaptoethanol and 0.5% bromophenol blue mix. Fifty μg of total cellular protein was resolved by electrophoresis in 8 or 12% polyacrylamide gels, electro-transferred to polyvinylidene difluoride (PVDF) filter and blocked with Tween 20 containing Tris-buffered saline [TBST; 10 mM Trizma base (pH 7.4), 1% Tween 20, and 150 mM NaCl] with 5% skim milk. After incubation with antiserum against iNOS (BD PharMingen, CA), or hRas (Upstate Biotechnology, CA), or phospho-specific MAPK (p42/44) (Signal Transduction), in PVDF buffer for 2 h at room temperature, the filters were washed 3 times with TBST buffer and then incubated with horseradish peroxidase conjugated anti-rabbit or mouse IgG for 1 h. The membranes were autoradiographed by using ECL-plus (Amersham Pharmacia Biotech) after washing with TBST buffer.\nNuclear Extraction and Electrophoretic mobility shift assay. Nuclear extracts from cells (1×10^7 cells) were prepared using previously published method (Dignam et al., 1983) with slight modification. Cells were harvested, washed twice with ice-cold TBS, and lysed in 400 μl of buffer A containing, 10 mM KCl, 2 mM MgCl2, 0.5 mM dithiothreitol, protease inhibitor cocktail (Sigma), and 0.1% Nonidet P40 in 10 mM HEPES, pH 7.9 for 10 min on ice. Following centrifugation at 5,000×g for 10 min, the pelleted nuclei were washed with buffer A without Nonidet P40, and re-suspended in 40 μl of buffer B containing 25% (v/v) glycerol, 0.42 M NaCl, 1.5 mM MgCl2, 0.2 mM EDTA, 0.5 mM dithiothreitol, and Complete™ protease inhibitor cocktail (Roche) in 20 mM HEPES, pH7.9 for 30 min on ice. The lysates were centrifuged at 15,000×g for 15 min and the supernatants containing the nuclear proteins were stored at −70° C. until use. Ten μg of nuclear proteins was used for the electrophoretic mobility shift assay for detection of AP-1, NFκB, and C/EBP DNA binding activities. DNA-protein binding reactions were carried out at room temperature for 20 min in 10 mM Trizma base (pH 7.9), 50 mM NaCl, 5 mM MgCl2, 1 mM EDTA, 1 mM dithiothreitol, 1 μg poly (dl-dC), 5% (v/v) glycerol, and approximately 0.3 pmol of NFκB (Santa Cruz Biotech) labeled with DIG-ddUTP using terminal deoxynucleotidyl transferase (Roche). Protein-DNA complexes were resolved from protein-free DNA in 5% polyacrylamide gels at room temperature in 50 mM Tris, pH 8.3, 0.38 M glycine, and 2 mM EDTA, and electroblotted onto positively charged nylon membranes. The chemiluminescence detection method for DIG-labeled probes is identical to the method described for the non-isotopic northern blot analysis in the preceding.\nTransient Transfections and Reporter Gene Assay. 3×10^5 cells/well were cultured in 6-well plates for one day before the transfection. Transfection was performed with plasmid concentration constant (2.5 μg/transfection) and 8 μl of Fugene transfection reagent (Roche Molecular Biochemicals). One day after transfection, the cells were placed in serum free media for overnight. Following appropriate treatment, the cells were washed with phosphate buffered saline (PBS), scrapped, and then resuspended with 100 μl of lysis buffer (40 mM of Tricine pH 7.8, 50 mM of NaCl, 2 mM of EDTA, 1 mM of MgSO4, 5 mM of dithiothreitol, and 1% of Triton X-100). After incubation in room temperature for 15 min with occasional vortexing, the samples were centrifuged. […]"}, "[4]": {"test_system": "iNOS", "test": "LPS/IFN-induced NO production and iNOS gene expression in primary astrocytes", "assay_type": "cell-based, rat", "details": "D-PDMP 0, 10, 25, 50 μM, 0.5 h pretreatment"}}, "data": [{"compound": "CCCCCCCCCC(=O)NC(CN1CCOCC1)C(O)c1ccccc1.Cl", "note": "[D-PDMP, D-threo-1-Phenyl-2-decanoylamino-3-morpholino-1-propanol HCl]", "values": [{"measurement": "solubility in water", "setting": "[1]", "value": "soluble"}, {"measurement": "LPS/IFN induced NO production", "setting": "[2]", "value": "inhibited"}, {"measurement": "iNOS protein and mRNA levels", "setting": "[2]", "value": "inhibited"}, {"measurement": "LPS/IFN induced luciferase activity (κB-repeat luciferase)", "setting": "[3]; D-PDMP 0.5 hr before LPS/IFN", "value": "abolished"}, {"measurement": "phosphorylation of IκB", "setting": "[3]; in the presence of D-PDMP", "value": "Decreased"}, {"measurement": "NF-κB DNA binding activity (electrophoresis mobility shift assay)", "setting": "[3]; increasing doses of D-PDMP, LPS/IFN 45 minutes", "value": "inhibited"}, {"measurement": "production of nitric oxide (NO)", "setting": "[4]; LPS/IFN 1 μg/ml, 10 U/ml, 24 hrs", "value": "dose dependent decrease"}, {"measurement": "mRNA and protein levels of iNOS", "setting": "[4]; LPS/IFN, mRNA 6 hrs, protein 24 hrs", "value": "dose dependent decrease"}]}]}
